Measured values as given in patent publication US11053204B2, “Pyrimidinyloxy benzene derivatives as herbicides” (FMC Corporation, priority 2015, dated 2021).

Columns and labels:
Format in all cases: in vivo
[1] = test system: pigweed (Amaranthus retroflexus); test: Test C preemergence, plant response rating; conditions: Preemergence
[2] = test system: velvetleaf (Abutilon theophrasti); test: Test C postemergence, plant response rating; conditions: Abutilon theophrasti, post-emergence
Summary of the method: (§1)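 Pre-emergence: seeds sown in loam soil–sand blend or silt loam and sprayed with test chemicals in a non-phytotoxic solvent mixture with surfactant. Post-emergence: plants 2 to 18 cm (1- to 4-leaf stage) in peat-based potting medium, same formulation. Greenhouse 13 to 15 d; visual rating 0 (no effect) to 100 (complete control) versus controls.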

[3] = test system: lambsquarters (Chenopodium album); test: Test C postemergence, plant response rating; conditions: Chenopodium album, post-emergence
Summary of the method: as §1

[4] = test system: foxtail, giant (giant foxtail, Setaria faberii); test: Test C postemergence, plant response rating; conditions: Setaria faberi, post-emergence
Summary of the method: as §1

[5] = test system: oilseed rape (Brassica napus); test: Test C postemergence, plant response rating; conditions: Brassica napus, post-emergence
Summary of the method: as §1

[6] = test system: ryegrass, Italian (Italian ryegrass, Lolium multiflorum); test: Test C postemergence, plant response rating; conditions: Lolium multiflorum, post-emergence
Summary of the method: as §1

corn (Zea mays) = test: Test C postemergence, plant response rating; conditions: Zea mays, post-emergence
Summary of the method: as §1

[7] = test system: galium (catchweed bedstraw, Galium aparine); test: Test C postemergence, plant response rating; conditions: Galium, post-emergence
Summary of the method: as §1

soybean (Glycine max) = test: Test C postemergence, plant response rating; conditions: Glycine max, post-emergence
Summary of the method: as §1

[8] = test system: blackgrass (Alopecurus myosuroides); test: Test C postemergence, plant response rating; conditions: Alopecurus myosuroides, post-emergence
Summary of the method: as §1

[9] = test system: wheat (winter wheat, Triticum aestivum); test: Test C postemergence, plant response rating; conditions: Triticum aestivum, post-emergence
Summary of the method: as §1

[10] = test system: oat, wild (wild oat Avena fatua); test: Test C postemergence, plant response rating; conditions: Avena fatua, post-emergence
Summary of the method: as §1

[11] = test system: nutsedge, yellow (yellow nutsedge, Cyperus esculentus); test: Test C postemergence, plant response rating; conditions: Cyperus, post-emergence
Summary of the method: as §1

[12] = test system: crabgrass, large (large crabgrass, Digitaria sanguinalis); test: Test C postemergence, plant response rating; conditions: Digitaria sanguinalis, post-emergence
Summary of the method: as §1

[13] = test system: barnyardgrass (Echinochloa crus-galli); test: Test C postemergence, plant response rating; conditions: Echinochloa crus-galli, post-emergence
Summary of the method: as §1

[14] = test system: ragweed (common ragweed, Ambrosia elatior); test: Test C postemergence, plant response rating; conditions: Ambrosia artemisiifolia, post-emergence
Summary of the method: as §1

[15] = 125 g ai/ha, scale 0 to 100 (0 no effect, 100 complete control)
[16] = 62 g ai/ha, scale 0 to 100 (0 no effect, 100 complete control)

CC(CC(F)(F)F)OC(=O)c1c(Br)cccc1Oc1ncc(Cl)cn1 (stereo not shown) [Compound 16, 3,3,3-trifluoro-1-methylpropyl 2-bromo-6-[(5-chloro-2-pyrimidinyl)oxy]benzoate]
Plant response rating, Pigweed ([1]; 125 g ai/ha, scale of 0 to 100): 95 | Plant response rating, Pigweed ([1]; 16 g ai/ha, scale 0 to 100): 0 | Plant response rating, Pigweed ([1]; 31 g ai/ha, scale 0 to 100): 0 | Plant response rating, Pigweed ([1]; 62 g ai/ha, scale 0 to 100): 50 | pest or weed control at 16 g/ha ([2]; 16 g ai/ha, scale 0 to 100): 20% | pest or weed control at 31 g/ha ([2]; 31 g ai/ha, scale 0 to 100): 25% | pest or weed control at 62 g/ha ([2]; 62 g ai/ha, scale 0 to 100 (0 no effect, 100 complete control), read-out: Velvetleaf plant response rating): 30% | pest or weed control at 125 g/ha [2, 15]: 50% | pest or weed control at 16 g/ha ([3]; 16 g ai/ha, scale 0 to 100): 40% | pest or weed control at 31 g/ha ([3]; 31 g ai/ha, scale 0 to 100): 50% | pest or weed control at 62 g/ha [3, 16]: 40% | pest or weed control at 125 g/ha [3, 15]: 60% | pest or weed control at 16 g/ha ([4]; 16 g ai/ha, scale 0 to 100): 10% | pest or weed control at 31 g/ha ([4]; 31 g ai/ha, scale 0 to 100): 20% | pest or weed control at 62 g/ha [4, 16]: 30% | pest or weed control at 125 g/ha [4, 15]: 35% | plant injury at 16 g/ha ([5]; 16 g ai/ha, scale 0 to 100): 15% | plant injury at 31 g/ha ([5]; 31 g ai/ha, scale 0 to 100): 35% | plant injury at 62 g/ha [5, 16]: 60% | plant injury at 125 g/ha [5, 15]: 70% | pest or weed control at 16 g/ha ([6]; 16 g ai/ha, scale 0 to 100): 0% | pest or weed control at 31 g/ha ([6]; 31 g ai/ha, scale 0 to 100): 0% | pest or weed control at 62 g/ha [6, 16]: 0% | pest or weed control at 125 g/ha [6, 15]: 5% | Corn plant response rating (crop injury, 0 = no effect, 100 = complete kill) at 16 g/ha (corn (Zea mays); 16 g ai/ha, scale 0 to 100): 5% | Corn plant response rating (crop injury, 0 = no effect, 100 = complete kill) at 31 g/ha (corn (Zea mays); 31 g ai/ha, scale 0 to 100): 15% | plant injury at 62 g/ha (corn (Zea mays); [16]): 15% | plant injury at 125 g/ha (corn (Zea mays); [15]): 20% | pest or weed control at 16 g/ha ([7]; 16 g ai/ha, scale 0 to 100): 45% | pest or weed control at 31 g/ha ([7]; 31 g ai/ha, scale 0 to 100): 50% | pest or weed control at 62 g/ha [7, 16]: 55% | pest or weed control at 125 g/ha [7, 15]: 55% | plant injury at 16 g/ha (soybean (Glycine max); 16 g ai/ha, scale 0 to 100): 15% | plant injury at 31 g/ha (soybean (Glycine max); 31 g ai/ha, scale 0 to 100): 35% | plant injury at 62 g/ha (soybean (Glycine max); [16]): 50% | plant injury at 125 g/ha (soybean (Glycine max); [15]): 50% | pest or weed control at 16 g/ha ([8]; 16 g ai/ha, scale 0 to 100): 0% | pest or weed control at 31 g/ha ([8]; 31 g ai/ha, scale 0 to 100): 0% | pest or weed control at 62 g/ha [8, 16]: 0% | pest or weed control at 125 g/ha [8, 15]: 5% | plant injury at 16 g/ha ([9]; 16 g ai/ha, scale 0 to 100): 0% | plant injury at 31 g/ha ([9]; 31 g ai/ha, scale 0 to 100): 0% | plant injury at 62 g/ha ([9]; 62 g ai/ha, scale 0 to 100 (0 no effect, 100 complete control), read-out: Wheat plant response rating): 0% | plant injury at 125 g/ha [9, 15]: 0% | pest or weed control at 16 g/ha ([10]; 16 g ai/ha, scale 0 to 100): 0% | pest or weed control at 31 g/ha ([10]; 31 g ai/ha, scale 0 to 100): 5% | pest or weed control at 62 g/ha [10, 16]: 5% | pest or weed control at 125 g/ha [10, 15]: 10% | pest or weed control at 16 g/ha ([11]; 16 g ai/ha, scale 0 to 100): 0% | pest or weed control at 31 g/ha ([11]; 31 g ai/ha, scale 0 to 100): 5% | pest or weed control at 62 g/ha [11, 16]: 10% | pest or weed control at 125 g/ha [11, 15]: 20% | pest or weed control at 16 g/ha ([12]; 16 g ai/ha, scale 0 to 100): 10% | pest or weed control at 31 g/ha ([12]; 31 g ai/ha, scale 0 to 100): 15% | pest or weed control at 62 g/ha [12, 16]: 25% | pest or weed control at 125 g/ha [12, 15]: 25% | pest or weed control at 16 g/ha ([13]; 16 g ai/ha, scale 0 to 100): 5% | pest or weed control at 31 g/ha ([13]; 31 g ai/ha, scale 0 to 100): 10% | pest or weed control at 62 g/ha [13, 16]: 20% | pest or weed control at 125 g/ha [13, 15]: 20% | pest or weed control at 16 g/ha ([14]; 16 g ai/ha, scale 0 to 100): 20% | pest or weed control at 31 g/ha ([14]; 31 g ai/ha, scale 0 to 100): 10% | pest or weed control at 62 g/ha [14, 16]: 10% | pest or weed control at 125 g/ha [14, 15]: 40%
